Experimental data as given in article PMC4966941 (PLoS ONE, 2016).
Counter-ions that a name gives are not always drawn.

Test system: Staphylococcus aureus Xen 36
Test: In-vivo infection prevention study: microbiological analysis of explanted tissue
Method: Bioluminescent strain Staphylococcus aureus Xen 36 (Caliper LifeSciences, Alameda, CA) was used to develop bone infection. The strain was stored in a glycerol (20% v/v) and Brain Heart Infusion (BHI) suspension at -80°C until required. Bacteria were subcultured onto an LB plate (Luria-Bertani, Miller broth mixed with 1.2% (w/v) Technical Agar (Difco, Sparks, MD.)), at 37°C overnight. Five colonies were then transferred to 3 mL LB broth and grown in shaker incubator (200 rpm), at 37°C for 2.5 h. Two milliliters of the bacterial suspension was transferred to 100 mL LB broth and grown for a further 4 h, until the cells reached exponential growth. Bacterial suspension was transferred into 50 mL centrifuge tubes and cells centrifuged at ~3,000 rpm for 30 min. Supernatants were discarded and pellets were re-suspended in 15 mL Phosphate Buffered Saline (PBS). Cells were then mixed by vortexing and the centrifugation process was repeated. This cell washing process was repeated three times. The final washed and pelleted cells were re-suspended in a total of 10 mL PBS, and mixed by vortexing. The cell suspension was then ten-fold serially diluted. The concentration of the cell suspension was then determined using the spread plate technique and spreading 100 μL of the various dilutions onto LB plates, in duplicate. Plates were incubated at 37°C overnight before counting colony forming units (CFU). The viable count was then used to dilute the washed cell suspension to the desired concentrations (i.e., average Log10 7.82 CFU/mL or 6.62x10^7 CFU/mL) using PBS. Two hundred microliter aliquots were dispensed into microfuge tubes and labeled bacterial inoculum. To inoculate the rat tibias the bacterial inoculum was mixed with equal volume of 1% (w/v) molten agarose (Pulsed field certified agarose, Biorad, Hercules, CA). Mixing the bacteria with agarose helped to control seepage of the inoculum and minimize contamination of the surrounding muscle.
After sacrificing the rats, the tibia and gastrocnemius muscle surrounding the surgical site were explanted, weighed separately and flash frozen with liquid nitrogen prior to pulverizing in a freezer mill (6770 Spex SamplePrep, Metuchen, NJ.). The powdered samples were then re-weighed, suspended (i.e., 1:10) in phosphate buffered saline (PBS), vortexed, and 10-fold serially diluted before plating (in duplicate) 100 μL of suspensions onto LB plates (Luria-Bertani, Miller broth mixed with 1.2% (w/v) Technical Agar (Difco, Sparks, MD.)). Plates were incubated at 37°C for 18–24 h and the bacterial load (colony forming units) per sample was calculated based on the number of colonies seen at specific dilutions. Confirmation of isolating S. aureus Xen 36 colonies from samples was determined using the IVIS (Lumina II, Caliper Life Science, Hopkinton, MA.). Non-bioluminescent colonies were confirmed as S. aureus using Gram staining, catalase test and Color Staph ID kit (Sure-Vue, Fisher Scientific, Houston TX.).

SMILES: CN[C@H](CC(C)C)C(=O)N[C@H]1C(=O)N[C@@H](CC(N)=O)C(=O)N[C@H]2C(=O)N[C@H]3C(=O)N[C@H](C(=O)N[C@H](C(=O)O)c4cc(O)cc(O)c4-c4cc3ccc4O)[C@H](O)c3ccc(c(Cl)c3)Oc3cc2cc(c3O[C@@H]2O[C@H](CO)[C@@H](O)[C@H](O)[C@H]2O[C@H]2C[C@](C)(N)[C@H](O)[C@H](C)O2)Oc2ccc(cc2Cl)[C@H]1O [vancomycin, vancomycin hydrochloride]
- Viable bacteria in tibia of treated rats (rat tibia inoculated with S. aureus Xen 36, single 25 mg/Kg intramedullary dose, end of 14-day study): < 200 CFU/g
- Signs of infection around the surgical site (rat, S. aureus Xen 36, prophylactic single 25 mg/Kg intramedullary dose, 14 days): no signs of infection
- Bacteria in the muscle and plasma samples of treated rats (rat, S. aureus Xen 36, single 25 mg/Kg intramedullary dose, end of study): No bacteria were detected
- Ave Log10 CFU/muscle (treated rats, explanted muscle at end of 14-day study, mean of n = 9, values of 100 CFU = below detection limit): 2.00 Log10 CFU/muscle
- Ave Log10 CFU/tibia (treated rats, explanted tibia at end of 14-day study, mean of n = 9, values of 100 CFU = below detection limit): 2.09 Log10 CFU/tibia
- Log10 CFU/tibia (treated, end of study, rat K-11, 2.00 = below detection limit): 2.81 Log10 CFU/tibia
